Consider eleven compounds from patent publication US8263044B2, “Stilbene like compounds as novel HDAC inhibitors” (Orchid Research Laboratories Limited, priority 2005, dated 2012).

The IC50 is the concentration that inhibits the measured activity by half.

The test system of assay [1] is NCIH460, HCT116, MDAMB231/U251. In words: Anti-cancer screen, mean GI50 over the cell lines. Type of assay: cell-based. Particulars: mean over the three cell lines; no unit in table. The protocol:
(§1) Experimental drugs are screened for anti-cancer activity in three cell lines for their GI50, TGI and LC50 values (using five concentrations for each compound). The cell lines are maintained in DMEM containing 10% fetal bovine serum. 96 well micro titer plates are inoculated with cells in 100 μL for 24 h at 37° C., 5% CO2, 95% air and 100% relative humidity. 5000 HCT 116 cells/well, 5000 NCIH 460 cells/well and 5000 U251 cells/well are plated. A separate plate with these cell lines is also inoculated to determine cell viability before the addition of the compounds (T0) (See Table I).
(§2) Following 24-hour incubation, experimental drugs are added to the 96 well plates. Each plate contains one of the above cell lines and the following in triplicate: five different concentrations (0.01, 0.1, 1, 10 and 100 μM) of four different compounds, appropriate dilutions of a cytotoxic standard and control (untreated) wells. Compounds are dissolved in DMSO to make 20 mM stock solutions on the day of drug addition and frozen at −20° C. Serial dilutions of these 20 mM stock solutions are made in complete growth medium such that 100 μL of these drug solutions in medium, of final concentrations equaling 0.01, 0.1, 1, 10 and 100 μM can be added to the cells in triplicate. […] (See Table I).
(§3) For T0 measurement, 24 hours after seeding the cells, 10 μL of 3-(4,5-Dimethyl-2-thiazolyl)-2,5-diphenyl-2H-tetrazolium (MTT) solution per well is added and incubation carried out for 3 hours at 37° C., 5% CO2, 95% air and 100% relative humidity, protected from light. Cells incubated with compounds for 48 hours are treated similarly except with the addition of 20 μL MTT solution per well and a subsequent incubation under the same conditions. After 3 hours of MTT incubation, well contents are aspirated carefully followed by addition of 150 μL DMSO per well. Plates are agitated to ensure solution of the formazan crystals in DMSO and absorbance read at 570 nm. (See Table I).
Percent growth is calculated for each compound's concentration relative to the control and zero measurement wells (T0; viability right before compound addition). […]

The test system of another assay is HCT 116 cells. In words: cells. Particulars: Homo sapiens, HCT-116, 48 h; for GI50: read-out: HCT116 GI50; for CC50: read-out: HCT116 LC50. Here is the method:
as §1, §2, §3
(§4) Percent growth is calculated for each compound's concentration relative to the control and zero measurement wells (T0; viability right before compound addition).
(§5) If a test well's O.D. value is lower than the T0 measurement for that cell line, then, % Growth=(test−zero)/zero×100

A further assay relates to NCIH 460 cells. The assay can be described thus: cells. To be noted: Homo sapiens, NCI-H460, 48 h; for GI50: read-out: NCIH460 GI50; for CC50: read-out: NCIH460 LC50. Here is the method: as §1, §2, §3, §4, §5
Assay [2] has as its system MDAMB231/U251. The assay can be described thus: cells. To be noted: 48 h, read-out: MDAMB231/U251 GI50. Here is the method: as §1, §2, §3, §4, §5
In assay [3] the test system is MDAMB231/U251. In words: cells. To be noted: 48 h, read-out: MDAMB231/U251 LC50.
In assay [4] the test system is HDAC activity (Mouse Liver Extract). In words: Histone Deacetylase (HDAC) Inhibition Assay using Boc-Lys (Ac)-AMC Substrate. Type of assay: biochemical. To be noted: mouse liver enzyme; for HDAC Inhibition 1 μM: inhibitor at 1 μM; for HDAC Inhibition 1 μM / HDAC Inhibition 10 μM: in % (unit assumed); for HDAC Inhibition 10 μM: inhibitor at 10 μM. The protocol:
Histone Deacetylase (HDAC) Inhibition Assay using Boc-Lys (Ac)-AMC Substrate: Inhibition of HDAC has been implicated to modulate transcription and to induce apoptosis or differentiation in cancer cells. The fluorometric assay provides a fast and fluorescence based method that eliminates radioactivity, extractions or chromatography, as used in traditional assays. The assay based on two steps. First, the HDAC fluorometric substrate, which comprises an acetylated lysine side chain, is incubated with a sample containing HDAC activity (Mouse Liver Extract). Deacetylation of the substrate sensitizes the substrate, in the second step; treatment with the Trypsin stop solution produces a fluorophore that can be easily analyzed using fluorescence plate reader.
Assay was done in 96 well black microplate and total volume of the assay is 100 ul. Mouse liver enzyme is diluted 1:6 with HDAC buffer. Enzyme cocktail made of 10 ul of diluted enzyme and 30 ul of HDAC buffer. 40 ul of enzyme cocktail dispensed into each well. 10 ul of different concentrations of inhibitor added in to each well, except enzyme control well. Preincubated the plate at 30° C. for 5 minutes. The HDAC reaction is started by adding 50 ul of HDAC substrate (Boc-Lys (Ac)-AMC Substrate) solution. Incubated the plate at 30° C. for 30 minutes. Adding 100 ul of Trypsin stop solution stops the reaction. The plate is incubated again at 30° C. for 20-30 minutes. The release of AMC is monitored by measuring the fluorescence at excitation wavelength of 365 or 360 nm and emission wavelength of 440 or 460 nm. Buffer and substrate alone kept for blank subtraction. (Dennis Wegener et al, Anal. Biochem, 321, 2003, 202-208).

Consider `COc1cc(/C=C(\C(=O)NCCCCCC(=O)N(C)OC)c2ccc(O)cc2)cc(OC)c1OC` [Example 7, (2Z)-3-(3,4,5-Trimethoxyphenyl)-2-(4-hydroxyphenyl)-N-[6-(N,O dimethylamine)-6-oxohexyl]acrylamide], for which the GI50 in assay [1] is 0.6 µM; with HCT 116 cells, 0.98 µM; in the assay on NCIH 460 cells it was 0.01 µM; with MDAMB231/U251 [2], 0.8 µM. The CC50 was above 100 µM in the assay on HCT 116 cells, 10 µM in the assay on NCIH 460 cells and above 100 µM in the assay with MDAMB231/U251 [3]. Also, the “HDAC Inhibition 1 μM” value in assay [4] is given as 7.3. For the same compound, the “HDAC Inhibition 10 μM” value in assay [4] was found to be 3.8.
Take `Cc1ncsc1/C=C(/C(=O)NCCCCCC(=O)NO)c1cccs1` [Example 8, [(2Z)-3-(4-Methyl-1,3-thiazol-5-yl)-2-(2-thienyl))-N-[6-(hydroxyamino)-6-oxohexyl]acrylamide]: the GI50 is 9.7 µM in assay [1], 8 µM with HCT 116 cells, 15 µM with NCIH 460 cells and 6 µM in the assay with MDAMB231/U251 [2]. Further, the CC50 is above 100 µM with HCT 116 cells, above 100 µM in the assay with NCIH 460 cells and 96 µM with MDAMB231/U251 [3]. For the same compound, in assay [4], the “HDAC Inhibition 1 μM” value turned out to be 77.63. Moreover, the “HDAC Inhibition 10 μM” value in assay [4] came to 99.67. Also, in assay [4], the midpoint of inhibition, the IC50, lay at 0.55 µM.
`COc1cc(/C=C(\C(=O)NCCCCCC(=O)NO)c2ccc([N+](=O)[O-])cc2)cc(OC)c1` [Example 9, (2Z)-3-(3,5-Dimethoxyphenyl)-2-(4-nitrophenyl)-N-[6-(hydroxyamino)-6-oxohexyl]acrylamide]: the GI50 in assay [1] is 31 µM; in the assay with HCT 116 cells, 20 µM; in the assay on NCIH 460 cells it was 45 µM; with MDAMB231/U251 [2] it was 28 µM. The CC50 is 95 µM in the assay on HCT 116 cells, 100 µM with NCIH 460 cells and 90 µM with MDAMB231/U251 [3]. Further, the “HDAC Inhibition 1 μM” value in assay [4] was 65.5. Besides, in assay [4], the “HDAC Inhibition 10 μM” value came out at 98.28. The compound further came in with an IC50 in assay [4] of 0.7 µM.
Turning to `O=C(CCCCCNC(=O)/C(=C\c1ccc(Br)s1)c1ccc(Br)cc1)NO` [Example 13, (2Z)-3-(5-Bromo-2-thienyl)-2-(4-bromophenyl)-N-[6-(hydroxyamino)-6-oxohexyl]acrylamide], the GI50 in assay [1] is 5 µM; in the assay with HCT 116 cells, 5 µM; in the assay with NCIH 460 cells, 7 µM; in the assay with MDAMB231/U251 [2] it was 3 µM. Besides, the CC50 in the assay with HCT 116 cells was found to be 70 µM; with NCIH 460 cells it was 75 µM; in the assay on MDAMB231/U251 [3] it was 80 µM. Moreover, the “HDAC Inhibition 1 μM” value in assay [4] came to 53.83. For the same compound, in assay [4], the “HDAC Inhibition 10 μM” value stood at 89.18. In assay [4], the IC50 came to 2.95 µM.
For `O=C(CCCCCNC(=O)/C(=C\c1ccncc1)c1ccc(F)cc1)NO` [Example 14, (2Z)-3-(4-Pyridine)-2-(4-fluorophenyl)-N-[6-(hydroxyamino)-6-oxohexyl]acrylamide], the GI50 (in assay [1]; in the assay with HCT 116 cells; in the assay on NCIH 460 cells; with MDAMB231/U251 [2]) was above 100 µM in each case. For the same compound, the CC50 in the assay with HCT 116 cells, in the assay on NCIH 460 cells and in the assay on MDAMB231/U251 [3] was above 100 µM in each case. Besides, the “HDAC Inhibition 1 μM” value in assay [4] turned out to be 21.1. Further, the “HDAC Inhibition 10 μM” value in assay [4] is on record as 35.4.
Turning to `O=C(CCCCCNC(=O)/C(=C\c1ccncc1)c1ccc(F)cc1)Nc1ccc(O)cc1[N+](=O)[O-]` [Example 15], the GI50 (in assay [1]; in the assay with HCT 116 cells; in the assay with NCIH 460 cells; with MDAMB231/U251 [2]) was above 100 µM in each case. Besides, the CC50 in the assay on HCT 116 cells, with NCIH 460 cells and in the assay on MDAMB231/U251 [3] was above 100 µM each time. Moreover, in assay [4], the “HDAC Inhibition 1 μM” value was found to be 1.7. Also, in assay [4], the “HDAC Inhibition 10 μM” value was found to be 4.
Regarding `CSc1ccc(/C=C(\C(=O)NCCCCCC(=O)NO)c2ccc(F)cc2)cc1` [Example 16, (2Z)-3-(4-Thiomethylphenyl)-2-(4-fluorophenyl)-N-[6-(hydroxyamine)-6-oxohexyl]acrylamide], the GI50 was determined as 0.7 µM in assay [1], 1.9 µM with HCT 116 cells, 0.01 µM in the assay with NCIH 460 cells and 0.15 µM with MDAMB231/U251 [2]. The results for the CC50 with HCT 116 cells, with NCIH 460 cells and in the assay on MDAMB231/U251 [3] were 32 µM, 24 µM and 90 µM, respectively. Also, in assay [4], the “HDAC Inhibition 1 μM” value turned out to be 68. Further, in assay [4], the “HDAC Inhibition 10 μM” value was determined as 83. Also, in assay [4], the IC50 was found to be 0.061 µM.
On to `CSc1ccc(/C=C(\C(=O)NCCCCCC(=O)Nc2ncc([N+](=O)[O-])s2)c2ccc(F)cc2)cc1` [Example 17, (2Z)-3-(4-Thiomethylphenyl)-2-(4-fluorophenyl)-N-[6-(5-nitro-2-thiazoleamine)-6-oxohexyl]acrylamide], for which the GI50 was 0.3 µM in assay [1], 0.03 µM in the assay with HCT 116 cells, 0.25 µM with NCIH 460 cells and 0.71 µM with MDAMB231/U251 [2]. Moreover, the CC50 in the assay with HCT 116 cells, with NCIH 460 cells and in the assay on MDAMB231/U251 [3] was above 100 µM throughout. Further, the “HDAC Inhibition 1 μM” value in assay [4] is reported as 0.7. Also, the “HDAC Inhibition 10 μM” value in assay [4] came out at 2.3.
Consider `CON(C)C(=O)CCCCCNC(=O)/C(=C\c1ccc(SC)cc1)c1ccc(F)cc1` [Example 18, (2Z)-3-(4-Thiomethylphenyl)-2-(4-fluorophenyl)-N-[6-(N,O dimethylamine)-6-oxohexyl]acrylamide], for which the GI50 came out at 18.8 µM in assay [1], 55 µM with HCT 116 cells, 0.5 µM in the assay on NCIH 460 cells and 0.8 µM with MDAMB231/U251 [2]. The CC50 with HCT 116 cells, in the assay with NCIH 460 cells and in the assay with MDAMB231/U251 [3] was above 100 µM each time. In addition, in assay [4], the “HDAC Inhibition 1 μM” value is reported as 2.26. Further, the “HDAC Inhibition 10 μM” value in assay [4] was determined as 0.89.
In the case of `CSc1ccc(/C=C(\C(=O)NCCCCCC(=O)Nc2nc3cc(C)ccc3s2)c2ccc(F)cc2)cc1` [Example 19, (2Z)-3-(4-Thiomethylphenyl)-2-(4-fluorophenyl)-N-[6-(5-methyl-2-benzothiazoleamine)-6-oxohexyl]acrylamide], the GI50 in assay [1] is 6.9 µM; in the assay with HCT 116 cells, above 100 µM; with NCIH 460 cells, 8 µM; in the assay with MDAMB231/U251 [2], 5.8 µM. Besides, the CC50 in the assay with HCT 116 cells, in the assay with NCIH 460 cells and in the assay on MDAMB231/U251 [3] was above 100 µM each time. In assay [4], the “HDAC Inhibition 1 μM” value was −22.2. The “HDAC Inhibition 10 μM” value in assay [4] turned out to be 10.2.
Consider `CSc1ccc(/C=C(\C(=O)NCCCCCC(=O)Nc2nccs2)c2ccc(F)cc2)cc1` [Example 20, (2Z)-3-(4-Thiomethylphenyl)-2-(4-fluorophenyl)-N-[6-(2-thiazoleamine)-6-oxohexyl]acrylamide], for which the GI50 in assay [1] is 2 µM; in the assay on HCT 116 cells it was above 100 µM; with NCIH 460 cells it was 1 µM; in the assay with MDAMB231/U251 [2] it was 3 µM. Besides, the CC50 with HCT 116 cells, in the assay on NCIH 460 cells and in the assay with MDAMB231/U251 [3] was above 100 µM in each case. For the same compound, the “HDAC Inhibition 10 μM” value in assay [4] was 5.57.
